Biological target: T1, human KV 1.5 (IKur) (Homo sapiens, UniProt P22460)
T1 construct: expressed in transfected cells
Assay: block of IKur current in patch clamped L-929 cells expressing human Kv1.5
Format: cell-based
Details: patch clamped mammalian L-929 cells stably expressing human Kv1.5; for inhibition at 0.3 µM: L929, 0.3 μM, read-out: KV1_5% Inh L929 @0.3 μM
Excerpt: Assays to determine the degree of activity of a compound as an IKur inhibitor are well known in the art and are described in references such as J. Gen. Physiol., 101(4):513-543 (April 1993), and Br. J. Pharmacol., 115(2):267-274 (May 1995).
Synders, D. J. et al., “A rapidly activating and slowly inactivating potassium channel cloned from human heart: functional analysis after stable mammalian cell culture expression”, J. Gen. Physiol., 101:513-543 (1993). • 2. Zhou, Z. et al., “Block of HERG potassium channels by the antihistamine astemizole and its metabolites desmethylastemizole and norastemizole”, J. Cardiovasc. Electrophysiol., 10(6):836-843 (1999).

T1 sequence (P22460 whole entry): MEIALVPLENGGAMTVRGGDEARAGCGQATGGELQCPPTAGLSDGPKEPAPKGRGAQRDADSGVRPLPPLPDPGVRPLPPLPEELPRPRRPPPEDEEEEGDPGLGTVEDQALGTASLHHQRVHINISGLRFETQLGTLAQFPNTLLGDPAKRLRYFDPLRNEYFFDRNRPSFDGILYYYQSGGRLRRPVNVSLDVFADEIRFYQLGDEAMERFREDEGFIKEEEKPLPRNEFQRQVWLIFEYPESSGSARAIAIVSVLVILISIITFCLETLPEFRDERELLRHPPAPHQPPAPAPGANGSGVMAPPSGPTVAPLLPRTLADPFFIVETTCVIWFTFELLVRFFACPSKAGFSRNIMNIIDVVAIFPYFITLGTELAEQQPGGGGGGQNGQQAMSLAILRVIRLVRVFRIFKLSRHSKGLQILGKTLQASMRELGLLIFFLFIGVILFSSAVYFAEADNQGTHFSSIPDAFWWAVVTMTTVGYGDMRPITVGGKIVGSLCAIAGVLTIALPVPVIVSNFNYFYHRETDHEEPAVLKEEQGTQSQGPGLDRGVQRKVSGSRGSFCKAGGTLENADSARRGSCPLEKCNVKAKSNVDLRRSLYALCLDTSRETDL

inhibition at 0.3 µM [%] | KV1_5% Inh L929 @0.3 μM (0.3 μM) [%] | SMILES
91.3 | – | O=C(O)CCc1cncc(-c2nc(NCc3ccccc3)c3c(-c4ccccc4)ccn3n2)c1 [Example 19, 3-(5-(4-(Benzylamino)-5-phenylpyrrolo[1,2-f][1,2,4]triazin-2-yl)pyridin-3-yl)propanoic acid]
84.8 | – | NS(=O)(=O)c1cncc(-c2nc(NCc3ccccn3)c3c(-c4cccnc4)ccn3n2)c1 [Example 148, 5-(4-(pyridin-2-ylmethylamino)-5-(pyridin-3-yl)pyrrolo [1,2-f][1,2,4]triazin-2-yl)pyridine-3-sulfonamide]
98.5 | – | c1ccc(-c2ccn3nc(-c4cc[nH]n4)nc(NCc4ccccn4)c23)cc1 [Example 126, 5-pheny 1-2-(1H-pyrazol-3-yl)-N-(pyridin-2-ylmethyl) pyrrolo[1,2-f][1,2,4] triazin-4-amine]
91 | – | O=C(O)c1cccc(-c2nc(NCc3ccccn3)c3c(-c4ccccc4)ccn3n2)c1 [Example 87, 3-(5-phenyl-4-(pyridin-2-ylmethylamino)pyrrolo [1,2-f][1,2,4]triazin-2-yl)benzoic acid]
97.8 | – | N#Cc1ccc(-c2nc(NCc3ccccn3)c3c(-c4ccccc4)ccn3n2)cc1 [Example 67, 4-(5-phenyl-4-(pyridin-2-ylmethylamino)pyrrolo [1,2-f][1,2,4]triazin-2-yl)benzonitrile]
96.2 | – | NS(=O)(=O)c1cncc(-c2nc(NCc3ncccc3F)c3c(-c4ccccc4)ccn3n2)c1 [Example 138, 5-(4-(((3-fluoropyridin-2-yl)methyl)amino)-5-phenylpyrrolo [2,1-f][1,2,4]triazin-2-yl) pyridine-3-sulfonamide]
97 | – | COc1ccc(-c2nc(NCc3ccccn3)c3c(-c4ccccc4)ccn3n2)cn1 [Example 111, 2-(6-methoxypyridin-3-yl)-5-phenyl-N-(pyridin-2-ylmethyl)pyrrolo[1,2-f] [1,2,4]triazin-4-amine]
95.1 | – | CC(C)Oc1ncc(-c2nc(NCc3ccccn3)c3c(-c4ccccc4)ccn3n2)cc1S(N)(=O)=O [Example 41, 2-Isopropoxy-5-(5-phenyl-4-((pyridin-2-ylmethyl)amino)pyrrolo[2,1-f][1,2,4]triazin-2-yl)pyridine-3-sulfonamide]
98.7 | – | NS(=O)(=O)c1cncc(-c2nc(NCc3ncccc3F)c3c(-c4ccccc4F)ccn3n2)c1 [Example 173, 5-(5-(2-fluorophenyl)-4-(((3-fluoropyridin-2-yl)methyl)amino)pyrrolo [2,1-f][1,2,4]triazin-2-yl)pyridine-3-sulfonamide]
49 | – | O=C(c1nc(NCc2ccccc2)c2c(-c3ccccc3)ccn2n1)N1CCN(c2ccc(O)cc2)CC1 [Example 120, (4-(benzylamino)-5-phenylpyrrolo [1,2-f][1,2,4]triazin-2-yl)(4-(4-hydroxyphenyl)piperazin-1-yl)methanone]
94.5 | – | Oc1cc(-c2nc(NCc3ccccn3)c3c(-c4ccccc4)ccn3n2)ccn1 [Example 157, 4-(5-phenyl-4-((pyridin-2-ylmethyl)amino)pyrrolo [2,1-f][1,2,4]triazin-2-yl)pyridin-2-ol]
98.1 | – | CC(=O)Nc1ccccc1-c1nc(NCc2ccccn2)c2c(-c3ccccc3)ccn2n1 [Example 53, N-(2-(5-phenyl-4-(pyridin-2-ylmethylamino)pyrrolo[1,2-f][1,2,4]triazin-2-yl)phenyl) acetamide]
97.3 | – | CC(C)(C)OC(=O)NC1(c2nc(NCc3ccccn3)c3c(-c4ccccc4)ccn3n2)CC1 [Example 34, tert-Butyl 1-(5-phenyl-4-(pyridin-2-ylmethylamino)pyrrolo[1,2-f][1,2,4]triazin-2-yl)cyclopropylcarbamate]
96 | – | CC1(C)OCC(CNC(=O)c2cncc(-c3nc(NCc4ccccc4)c4c(-c5ccccc5)ccn4n3)c2)O1 (stereo not shown) [Example 90, 5-(4-(benzylamino)-5-phenylpyrrolo [1,2-f][1,2,4]triazin-2-yl)-N-((2,2-dimethyl-1,3-dioxolan-4-yl)methyl)nicotinamide]
86.4 | – | O=C(Nc1ccncn1)c1nc(NCc2ccccc2)c2c(-c3ccccc3)ccn2n1 [Example 124, 4-(benzylamino)-5-phenyl-N-(pyrimidin-4-yl)pyrrolo[1,2-f][1,2,4] triazinc-2-carboxamide]
28.1 | – | Nc1cncc(-c2nc(NCc3ccccn3)c3c(-c4cncc(N)c4)ccn3n2)c1 [Example 68, 5,5′-(4-(pyridin-2-ylmethylamino)pyrrolo [1,2-f][1,2,4]triazine-2-,5-diyl)dipyridin-3-amine]
93.2 | – | CS(=O)(=O)Nc1cccc(NC(=O)c2nc(NCc3ccccc3)c3c(-c4ccccc4)ccn3n2)c1 [Example 27, 4-(Benzylamino)-N-(3-(methylsulfonamido)phenyl)-5-phenylpyrrolo[1,2-f][1,2,4]triazine-2-carboxamide]
90.1 | – | CS(=O)(=O)Nc1ccccc1CNc1nc(-c2cncc(S(N)(=O)=O)c2)nn2ccc(-c3ccccc3)c12 [Example 179, 5-(4-((2-(methylsulfonamido)benzyl)amino)-5-phenylpyrrolo [2,1-f][1,2,4]triazin-2-yl)pyridine-3-sulfonamide]
93.8 | – | NS(=O)(=O)c1cncc(-c2nc(NCc3ccccc3)c3c(C4=CCOCC4)ccn3n2)c1 [Example 129, 5-(4-(benzylamino)-5-(3,6-dihydro-2H-pyran-4-yl)pyrrolo[2,1-f][1,2,4]triazin-2-yl)pyridine-3-sulfonamide]
99.2 | – | Nc1ccccc1CNc1nc(-c2cncc(S(N)(=O)=O)c2)nn2ccc(-c3ccccc3)c12 [Example 178, 5-(4-((2-aminobenzyl)amino)-5-phenylpyrrolo [2,1-f][1,2,4]triazin-2-yl)pyridine-3-sulfonamide]
99.4 | – | CC(=O)Nc1cncc(-c2nc(NCc3ccccn3)c3c(-c4ccccc4)ccn3n2)n1 [Example 42, N-(6-(5-Phenyl-4-(pyridin-2-ylmethylamino)pyrrolo[1,2-f][1,2,4]triazin-2-yl)pyrazin-2-yl)acetamide]
96.8 | – | NC(=O)Nc1cncc(-c2nc(NCc3ccccn3)c3c(-c4ccccc4)ccn3n2)c1 [Example 25, 1-(5-(5-Phenyl-4-(pyridin-2-ylmethylamino)pyrrolo[1,2-f][1,2,4]triazin-2-yl)pyridin-3-yl)urea]
– | 95.70 | CC(Nc1nc(-c2cncc(S(N)(=O)=O)c2)nn2ccc(-c3ccccc3)c12)c1ccc(F)cc1 (stereo not shown) [Example 77, 5-(4-(1-(4-fluorophenyl)ethylamino)-5-phenylpyrrolo[1,2-f] [1,2,4]triazin-2-yl)pyridine-3-sulfonamide]
97.2 | – | Cc1csc(CNc2nc(-c3cncc(S(N)(=O)=O)c3)nn3ccc(-c4ccccc4)c23)n1 [Example 174, 5-(4-(((4-methylthiazol-2-yl)methyl)amino)-5-phenylpyrrolo [2,1-f][1,2,4]triazin-2-yl)pyridine-3-sulfonamide]
96.6 | – | CC(=O)Nc1cccc(-c2nc(NCc3ccccn3)c3c(-c4ccccc4)ccn3n2)c1 [Example 48, N-(3-(5-phenyl-4-(pyridin-2-ylmethylamino)pyrrolo[1,2-f][1,2,4]triazin-2-yl)phenyl) acetamide]

Source: US9050345B2, “Pyrrolotriazines as potassium ion channel inhibitors” (BRISTOL-MYERS SQUIBB COMPANY, priority 2013, dated 2015)
